Source: PMC3395780 (Journal of Medicinal Chemistry, 2012)
Read-outs that look alike come from different tables or passages of the source.

How the values were obtained:
[1] = tested on: Salmonella typhimurium strain TA100; experiment: Ames assay, plate incorporation method; assay type: cell-based
M. abscessus = experiment: Antimicrobial spectrum of activity; assay type: cell-based; conditions: SI Table 1
M. smegmatis = experiment: Antimicrobial spectrum of activity; assay type: cell-based; conditions: relative to activity against Mtb; SI Table 1
[2] = tested on: Salmonella typhimurium strain TA98; experiment: Ames assay, plate incorporation method; assay type: cell-based
[3] = tested on: L5178Y mouse lymphoma cells; experiment: Mouse lymphoma cell tk+/−→tk−/− gene mutation; assay type: cell-based; conditions: for Mutation frequency response in MOLY assay: in the presence or absence of metabolic activation (S9), non-cytotoxic dose levels
[4] = Plasma pharmacokinetics after oral administration to female mice; assay type: in vivo, mouse
[5] = tested on: Vero cells (Vero ATCC CCL-81); experiment: Cytotoxicity against Vero cells; conditions: 72 h incubation
Mtb H37Rv [6] = experiment: TB MIC – ITR; assay type: cell-based, Mycobacterium tuberculosis; conditions: ITR laboratory
Mtb H37Rv [7] = experiment: TB MIC – SRI, resazurin-based microplate assay; assay type: cell-based, Mycobacterium tuberculosis; conditions: lowest concentration inhibiting ≥90% growth
NRP Mtb H37Rv cells = experiment: Low-oxygen recovery assay; assay type: cell-based, Mycobacterium tuberculosis; conditions: non-replicating Mtb, anaerobic 10 d + 28-h recovery; ~90% inhibition
[8] = tested on: L5178Y mouse lymphoma cells; conditions: no reference printed at b52; cited from earlier work
[9] = in the presence and absence of metabolic activation (10% rat-liver S9)

Q: With `[O-][n+]1nc(N2CCCC2)[n+]([O-])c2cc3c(cc21)CCC3` [Compound 20q, 3-(pyrrolidin-1-yl)-7,8-dihydro-6H-indeno[5,6-e][1,2,4]triazine 1,4-dioxide] as the compound, how does the “Number of revertant colonies, strain TA100” value [1, 9] read?
A: The value was “dose-related increases in the number of revertant colonies”.

Q: And the “Antimicrobial activity against M. abscessus” value (M. abscessus)?
A: Its value is “resistant”.

Q: What about the “Antimicrobial activity against M. smegmatis” value (M. smegmatis) of the same compound?
A: The value was “weaker activity”.

Q: What about the “Number of revertant colonies, strain TA98” value [2, 9] of the same compound?
A: The value was “dose-related increases in the number of revertant colonies”.

Q: And the “Mutagenic activity in MOLY assay” value ([3]; at concentrations up to 100 μg/mL)?
A: The value was “no mutagenic activity”.

Q: What about the “Mutagenic potential, +S9, 4-Hr Exposure” value ([3]; dose 10 μg/mL) of the same compound?
A: Its value is “Negative”.

Q: What about the “Mutagenic potential, −S9, 4-Hr Exposure” value ([3]; dose 10 μg/mL) of the same compound?
A: The value was “Negative”.

Q: What about the “Mutagenic potential, −S9, 24-Hr Exposure” value ([3]; dose 10 μg/mL) of the same compound?
A: The value was “Negative”.

Q: And the “Mutagenic potential, +S9, 4-Hr Exposure” value ([3]; dose 25 μg/mL)?
A: Its value is “Negative ^a”.

Q: And the “Mutagenic potential, +S9, 24-Hr Exposure” value ([3]; dose 25 μg/mL)?
A: The value was “Negative”.

Q: What about the “Mutagenic potential, −S9, 4-Hr Exposure” value ([3]; dose 25 μg/mL) of the same compound?
A: The value was “Negative”.

Q: What about the “Mutagenic potential, −S9, 24-Hr Exposure” value ([3]; dose 25 μg/mL) of the same compound?
A: The value was “Negative”.

Q: What about the “Mutagenic potential, +S9, 4-Hr Exposure” value ([3]; dose 50 μg/mL) of the same compound?
A: The value was “Negative”.

Q: And the “Mutagenic potential, +S9, 24-Hr Exposure” value ([3]; dose 50 μg/mL)?
A: Its value is “Negative”.

Q: And the “Mutagenic potential, −S9, 4-Hr Exposure” value ([3]; dose 50 μg/mL)?
A: The value was “Negative”.

Q: What about the “Mutagenic potential, −S9, 24-Hr Exposure” value ([3]; dose 50 μg/mL) of the same compound?
A: The value was “Negative”.

Q: What about the “Mutagenic potential, +S9, 4-Hr Exposure” value ([3]; dose 100 μg/mL) of the same compound?
A: The value was “Negative”.

Q: What about the “Mutagenic potential, +S9, 24-Hr Exposure” value ([3]; dose 100 μg/mL) of the same compound?
A: Its value is “Negative”.

Q: And the “Mutagenic potential, −S9, 4-Hr Exposure” value ([3]; dose 100 μg/mL)?
A: The value was “Negative”.

Q: What about the “Mutagenic potential, −S9, 24-Hr Exposure” value ([3]; dose 100 μg/mL) of the same compound?
A: Its value is “Negative”.

Q: And the “Mutation frequency response in MOLY assay” value [3]?
A: Its value is “negative response”.

Q: What about the “Plasma drug concentration at the 24 hr time point” value ([4]; female mice, 100 mg/kg po, n = 3 per time point) of the same compound?
A: The value was “lower than the limit of quantitation”.

Q: What does the source list for “7-fluoro-3-((1-methoxybutan-2-yl)amino)benzo[e][1,2,4]triazine 1,4-dioxide [Compound 15ai]”?
A: Vero Tox CC50 [5]: 6.3 mg/L; TB MIC – ITR (Mtb H37Rv [6]): 2.0 mg/L; TB MIC – SRI (Mtb H37Rv [7]): 5.0 mg/L; LORA MIC – ITR (NRP Mtb H37Rv cells): 1.9 mg/L

Q: With `Nc1n[n+]([O-])c2ccccc2[n+]1[O-]` [TPZ, tirapazamine] as the compound, how does the “Mutagenicity in MOLY assay” value [8] read?
A: Its value is “mutagenic”.

Q: With `CCNc1n[n+]([O-])c2ccccc2[n+]1[O-]` [Compound 8a, 3-(ethylamino)benzo[e][1,2,4]triazine 1,4-dioxide] as the compound, how does the “Antimicrobial activity against M. abscessus” value (M. abscessus) read?
A: The value was “resistant”.

Q: What about the “Antimicrobial activity against M. smegmatis” value (M. smegmatis) of the same compound?
A: Its value is “weaker activity”.

Q: What about the “Plasma drug concentration at the 24 hr time point” value ([4]; mouse, in vivo, po, 100 mg/kg) of the same compound?
A: The value was “lower than the limit of quantitation”.

Q: What does the source list for “3-((1-methoxybutan-2-yl)amino)benzo[e][1,2,4]triazine 1,4-dioxide [Compound 8i]”?
A: Vero Tox CC50 [5]: >50 mg/L; TB MIC – ITR (Mtb H37Rv [6]): 6.6 mg/L; TB MIC – SRI (Mtb H37Rv [7]): 10.0 mg/L; LORA MIC – ITR (NRP Mtb H37Rv cells): 4.9 mg/L

Q: For “7-chloro-3-((1-methoxybutan-2-yl)amino)benzo[e][1,2,4]triazine 1,4-dioxide [Compound 15bi]”, which “TB MIC – SRI” value (Mtb H37Rv [7]) is on record?
A: Its value is 1.2 mg/L.

Q: Which “Number of revertant colonies, strain TA100” value [1] does the source give for `CCNc1n[n+]([O-])c2cc3c(cc2[n+]1[O-])CCC3` [Compound 15fa, 3-(ethylamino)-7,8-dihydro-6H-indeno[5,6-e][1,2,4]triazine 1,4-dioxide] here?
A: Its value is “dose-related increases in the number of revertant colonies”.

Q: And the “Number of revertant colonies, strain TA98” value [2]?
A: The value was “dose-related increases in the number of revertant colonies”.

Q: And the “Mutagenic potential, +S9, 4-Hr Exposure” value ([3]; dose 10 μg/mL)?
A: The value was “Positive”.

Q: And the “Mutagenic potential, +S9, 24-Hr Exposure” value ([3]; dose 10 μg/mL)?
A: Its value is “Positive”.

Q: What about the “Mutagenic potential, −S9, 4-Hr Exposure” value ([3]; dose 10 μg/mL) of the same compound?
A: Its value is “Positive”.

Q: What about the “Mutagenic potential, +S9, 4-Hr Exposure” value ([3]; dose 25 μg/mL) of the same compound?
A: The value was “Positive”.

Q: What about the “Mutagenic potential, +S9, 24-Hr Exposure” value ([3]; dose 25 μg/mL) of the same compound?
A: The value was “Positive”.

Q: And the “Mutagenic potential, −S9, 4-Hr Exposure” value ([3]; dose 25 μg/mL)?
A: The value was “Positive”.

Q: What about the “Mutagenic potential, +S9, 4-Hr Exposure” value ([3]; dose 50 μg/mL) of the same compound?
A: Its value is “Positive”.

Q: What about the “Mutagenic potential, +S9, 24-Hr Exposure” value ([3]; dose 50 μg/mL) of the same compound?
A: The value was “Positive”.

Q: What about the “Mutagenic potential, −S9, 4-Hr Exposure” value ([3]; dose 50 μg/mL) of the same compound?
A: The value was “Positive”.

Q: What about the “Mutagenic potential, +S9, 4-Hr Exposure” value ([3]; dose 100 μg/mL) of the same compound?
A: Its value is “Positive”.

Q: And the “Mutagenic potential, +S9, 24-Hr Exposure” value ([3]; dose 100 μg/mL)?
A: The value was “Positive”.

Q: What about the “Mutagenic potential, −S9, 4-Hr Exposure” value ([3]; dose 100 μg/mL) of the same compound?
A: Its value is “Positive”.

Q: What about the “Mutation frequency response in MOLY assay” value [3] of the same compound?
A: Its value is “significant increase in mutation frequency”.
